Laboratory results taken from US10441630B2, “Topical formulations and uses thereof” (OCULAR TECHNOLOGIES SARL, priority 2012, dated 2019).

What was measured:
Type in all cases: physicochemical
[1] = Physical appearance, melt method, HCO-40 and compound 1001; conditions: 1001 4 wt %
Description: (§1) The preparation of MNF encapsulating compound 1001 (neat oil) can be divided into two steps. […] […] To this melt polymer compound 1001 (˜20 mg), thermostated at 40° C., was added and mixed for homogenous distribution. […] (in refrigerator).
(§2) This aqueous solution was allowed to reach room temperature, under natural conditions. The pH of the solution was adjusted to 5.5 and the volume was made up with 2× phosphate buffer saline (pH 5.5) containing octoxynol-40 (0.01 wt %) and PVP-K-90 (1.2 wt %). The formulation was filtered through 0.2 μm nylon filter to remove any foreign material and obtain a clear homogenous aqueous RX-1001 formulation.
(§3) The results obtained for physical appearance of the mixture, different phases, at different temperatures and appearance of final formulation are summarized in Tables 3a-3c.

[2] = Physical appearance, melt method, HCO-40 and compound 1001, at 25° C. and 4° C.; conditions: 1001 4 wt %; for Allow to reach room temperature (25° C.): brought back from 4° C.; for Mixture physical appearance at room temperature (4° C.): placed at 4° C.; for Resuspend in water: water at 40° C.
Description: The preparation of MNF encapsulating compound 1001 (neat oil) can be divided into two steps. As an example for the development of 3.0 wt % HCO-40 or HCO-60 MNF encapsulating 0.4% compound 1001 is described below. […] To this melt polymer compound 1001 (˜20 mg), thermostated at 40° C., was added and mixed for homogenous distribution. […] (in refrigerator).
as §2, §3

[3] = Physical appearance, melt method, HCO-60 and compound 1001; conditions: 1001 4 wt %; for Resuspend in water: water at 40° C.; for Physical appearance at room temperature (25° C.): melt mixture
Description: as §1, §2, §3

With `C#CC[C@@H](O)/C=C/C=C/C#C[C@@H](O)CCCC(=O)OC(C)C` [compound 1001] the Final formulation ([1]; HCO-40 0.5 wt %) was “Emulsion”, the “Mixture physical appearance at room temperature (25° C.)” value (from here on “Mixture physical appearance … (25° C.)”) ([1]; HCO-40 0.5 wt %) was “Viscous yellow liquid” and the Resuspend in water ([1]; HCO-40 0.5 wt %) was “Emulsion”. The Final formulation ([1]; HCO-40 0.75 wt %) was “Emulsion”, the “Mixture physical appearance … (25° C.)” value ([1]; HCO-40 0.75 wt %) was “Viscous yellow liquid” and the Resuspend in water ([1]; HCO-40 0.75 wt %) was “Emulsion”. The Final formulation ([1]; HCO-40 1.0 wt %) was “Emulsion”, the “Mixture physical appearance … (25° C.)” value ([1]; HCO-40 1.0 wt %) was “Viscous yellow liquid” and the Resuspend in water ([1]; HCO-40 1.0 wt %) was “Emulsion”. For the same compound, the Final formulation ([1]; HCO-40 1.25 wt %) was “Emulsion”, the “Mixture physical appearance … (25° C.)” value ([1]; HCO-40 1.25 wt %) was “Viscous yellow liquid” and the Resuspend in water ([1]; HCO-40 1.25 wt %) was “Emulsion”. For the same compound, the Final formulation ([1]; HCO-40 1.5 wt %) was “Emulsion”, the “Mixture physical appearance … (25° C.)” value ([1]; HCO-40 1.5 wt %) was “Viscous yellow liquid” and the Resuspend in water ([1]; HCO-40 1.5 wt %) was “Emulsion”. The Final formulation ([1]; HCO-40 1.75 wt %) was “Emulsion”, the “Mixture physical appearance … (25° C.)” value ([1]; HCO-40 1.75 wt %) was “Viscous yellow liquid” and the Resuspend in water ([1]; HCO-40 1.75 wt %) was “Emulsion”. For the same compound, the Final formulation ([1]; HCO-40 2.0 wt %) was “Emulsion”, the “Mixture physical appearance … (25° C.)” value ([1]; HCO-40 2.0 wt %) was “Viscous yellow liquid” and the Resuspend in water ([1]; HCO-40 2.0 wt %) was “Emulsion”. For the same compound, the Final formulation ([1]; HCO-40 2.25 wt %) was “Emulsion”, the “Mixture physical appearance … (25° C.)” value ([1]; HCO-40 2.25 wt %) was “Viscous yellow liquid” and the Resuspend in water ([1]; HCO-40 2.25 wt %) was “Emulsion”. The Final formulation ([1]; HCO-40 2.5 wt %) was “Yellow color”, the “Mixture physical appearance … (25° C.)” value ([1]; HCO-40 2.5 wt %) was “Viscous yellow liquid” and the Resuspend in water ([1]; HCO-40 2.5 wt %) was “Yellow”. The Final formulation ([1]; HCO-40 2.75 wt %) was “Pale yellow”, the “Mixture physical appearance … (25° C.)” value ([1]; HCO-40 2.75 wt %) was “Viscous yellow liquid” and the Resuspend in water ([1]; HCO-40 2.75 wt %) was “Pale”. For the same compound, the Final formulation ([1]; HCO-40 3.0 wt %) was “Clear solution”, the “Mixture physical appearance … (25° C.)” value ([1]; HCO-40 3.0 wt %) was “Viscous yellow liquid” and the Resuspend in water ([1]; HCO-40 3.0 wt %) was “Clear”. The Final formulation ([1]; HCO-40 4.0 wt %) was “Clear solution”, the “Mixture physical appearance … (25° C.)” value ([1]; HCO-40 4.0 wt %) was “Viscous yellow liquid” and the Resuspend in water ([1]; HCO-40 4.0 wt %) was “Clear”. The Final formulation ([2]; HCO-40 0.5 wt %) was “Emulsion”, the “Mixture physical appearance … (25° C.)” value ([2]; HCO-40 0.5 wt %) was “Viscous yellow” and the “Allow to reach room temperature (25° C.)” value ([2]; HCO-40 0.5 wt %) was “Viscous liquid”. The “Mixture physical appearance at room temperature (4° C.)” value (“Mixture physical appearance … (4° C.)” below) ([2]; HCO-40 0.5 wt %) was “Viscous liquid”, the Resuspend in water ([2]; HCO-40 0.5 wt %) was “Emulsion” and the Final formulation ([2]; HCO-40 0.75 wt %) was “Emulsion”. The “Mixture physical appearance … (25° C.)” value ([2]; HCO-40 0.75 wt %) was “Viscous yellow”, the “Allow to reach room temperature (25° C.)” value ([2]; HCO-40 0.75 wt %) was “Viscous liquid” and the “Mixture physical appearance … (4° C.)” value ([2]; HCO-40 0.75 wt %) was “Viscous liquid”. For the same compound, the Resuspend in water ([2]; HCO-40 0.75 wt %) was “Emulsion”, the Final formulation ([2]; HCO-40 1.0 wt %) was “Emulsion” and the “Mixture physical appearance … (25° C.)” value ([2]; HCO-40 1.0 wt %) was “Viscous yellow”. For the same compound, the “Allow to reach room temperature (25° C.)” value ([2]; HCO-40 1.0 wt %) was “Viscous liquid”, the “Mixture physical appearance … (4° C.)” value ([2]; HCO-40 1.0 wt %) was “Viscous liquid” and the Resuspend in water ([2]; HCO-40 1.0 wt %) was “Emulsion”. For the same compound, the Final formulation ([2]; HCO-40 1.25 wt %) was “Emulsion”, the “Mixture physical appearance … (25° C.)” value ([2]; HCO-40 1.25 wt %) was “Viscous yellow” and the “Allow to reach room temperature (25° C.)” value ([2]; HCO-40 1.25 wt %) was “Viscous liquid”. The “Mixture physical appearance … (4° C.)” value ([2]; HCO-40 1.25 wt %) was “Viscous liquid”, the Resuspend in water ([2]; HCO-40 1.25 wt %) was “Emulsion” and the Final formulation ([2]; HCO-40 1.5 wt %) was “Emulsion”. The “Mixture physical appearance … (25° C.)” value ([2]; HCO-40 1.5 wt %) was “Viscous yellow”, the “Allow to reach room temperature (25° C.)” value ([2]; HCO-40 1.5 wt %) was “Viscous liquid” and the “Mixture physical appearance … (4° C.)” value ([2]; HCO-40 1.5 wt %) was “Yellow waxy”. The Resuspend in water ([2]; HCO-40 1.5 wt %) was “Emulsion”, the Final formulation ([2]; HCO-40 1.75 wt %) was “Emulsion” and the “Mixture physical appearance … (25° C.)” value ([2]; HCO-40 1.75 wt %) was “Viscous yellow”. The “Allow to reach room temperature (25° C.)” value ([2]; HCO-40 1.75 wt %) was “Viscous liquid”, the “Mixture physical appearance … (4° C.)” value ([2]; HCO-40 1.75 wt %) was “Yellow waxy” and the Resuspend in water ([2]; HCO-40 1.75 wt %) was “Emulsion”. The Final formulation ([2]; HCO-40 2.0 wt %) was “Emulsion”, the “Mixture physical appearance … (25° C.)” value ([2]; HCO-40 2.0 wt %) was “Viscous yellow” and the “Allow to reach room temperature (25° C.)” value ([2]; HCO-40 2.0 wt %) was “Viscous liquid”. For the same compound, the “Mixture physical appearance … (4° C.)” value ([2]; HCO-40 2.0 wt %) was “Yellow waxy”, the Resuspend in water ([2]; HCO-40 2.0 wt %) was “Emulsion” and the Final formulation ([2]; HCO-40 2.25 wt %) was “Emulsion”. For the same compound, the “Mixture physical appearance … (25° C.)” value ([2]; HCO-40 2.25 wt %) was “Viscous yellow”, the “Allow to reach room temperature (25° C.)” value ([2]; HCO-40 2.25 wt %) was “Viscous liquid” and the “Mixture physical appearance … (4° C.)” value ([2]; HCO-40 2.25 wt %) was “Yellow waxy”. The Resuspend in water ([2]; HCO-40 2.25 wt %) was “Emulsion”, the Final formulation ([2]; HCO-40 2.5 wt %) was “Yellow color” and the “Mixture physical appearance … (25° C.)” value ([2]; HCO-40 2.5 wt %) was “Viscous yellow”. For the same compound, the “Allow to reach room temperature (25° C.)” value ([2]; HCO-40 2.5 wt %) was “Viscous liquid”, the “Mixture physical appearance … (4° C.)” value ([2]; HCO-40 2.5 wt %) was “Yellow waxy” and the Resuspend in water ([2]; HCO-40 2.5 wt %) was “Yellow”. For the same compound, the Final formulation ([2]; HCO-40 2.75 wt %) was “Very pale yellow”, the “Mixture physical appearance … (25° C.)” value ([2]; HCO-40 2.75 wt %) was “Viscous yellow” and the “Allow to reach room temperature (25° C.)” value ([2]; HCO-40 2.75 wt %) was “Viscous liquid”. For the same compound, the “Mixture physical appearance … (4° C.)” value ([2]; HCO-40 2.75 wt %) was “Pale yellow waxy”, the Resuspend in water ([2]; HCO-40 2.75 wt %) was “Pale yellow” and the Final formulation ([2]; HCO-40 3.0 wt %) was “Clear solution”. The “Mixture physical appearance … (25° C.)” value ([2]; HCO-40 3.0 wt %) was “Viscous yellow”, the “Allow to reach room temperature (25° C.)” value ([2]; HCO-40 3.0 wt %) was “Viscous liquid” and the “Mixture physical appearance … (4° C.)” value ([2]; HCO-40 3.0 wt %) was “Pale yellow solid”. The Resuspend in water ([2]; HCO-40 3.0 wt %) was “Clear”, the Final formulation ([2]; HCO-40 4.0 wt %) was “Clear solution” and the “Mixture physical appearance … (25° C.)” value ([2]; HCO-40 4.0 wt %) was “Viscous yellow”. For the same compound, the “Allow to reach room temperature (25° C.)” value ([2]; HCO-40 4.0 wt %) was “Pale yellow”, the “Mixture physical appearance … (4° C.)” value ([2]; HCO-40 4.0 wt %) was “Pale yellow waxy” and the Resuspend in water ([2]; HCO-40 4.0 wt %) was “Clear”. The “Final formulation (make up with 2X buffer containing 0.01% Oc-40)” value ([3]; HCO-60 1.0 wt %) was “Emulsion”, the Resuspend in water ([3]; HCO-60 1.0 wt %) was “Emulsion” and the “Final formulation (make up with 2X buffer containing 0.01% Oc-40)” value ([3]; HCO-60 2.0 wt %) was “Pale yellow clear”. The Resuspend in water ([3]; HCO-60 2.0 wt %) was “Forms pale”, the “Final formulation (make up with 2X buffer containing 0.01% Oc-40)” value ([3]; HCO-60 2.25 wt %) was “Pale yellow clear” and the Resuspend in water ([3]; HCO-60 2.25 wt %) was “Forms pale”. The “Final formulation (make up with 2X buffer containing 0.01% Oc-40)” value ([3]; HCO-60 2.5 wt %) was “Pale yellow clear”, the Resuspend in water ([3]; HCO-60 2.5 wt %) was “Forms very” and the “Final formulation (make up with 2X buffer containing 0.01% Oc-40)” value ([3]; HCO-60 2.75 wt %) was “Clear solution”. For the same compound, the Resuspend in water ([3]; HCO-60 2.75 wt %) was “Forms very”, the “Final formulation (make up with 2X buffer containing 0.01% Oc-40)” value ([3]; HCO-60 3.0 wt %) was “Clear solution” and the Resuspend in water ([3]; HCO-60 3.0 wt %) was “Clear solution”. The “Final formulation (make up with 2X buffer containing 0.01% Oc-40)” value ([3]; HCO-60 3.5 wt %) was “Clear solution”, the Resuspend in water ([3]; HCO-60 3.5 wt %) was “Clear solution” and the “Final formulation (make up with 2X buffer containing 0.01% Oc-40)” value ([3]; HCO-60 4.0 wt %) was “Clear solution”. For the same compound, the Resuspend in water ([3]; HCO-60 4.0 wt %) was “Clear solution”, the “Physical appearance at room temperature (25° C.)” value ([3]; HCO-60 1.0 wt %) was “Pale yellow half” and the “Physical appearance at room temperature (25° C.)” value ([3]; HCO-60 2.0 wt %) was “Pale yellow”. The “Physical appearance at room temperature (25° C.)” value ([3]; HCO-60 2.25 wt %) was “Pale yellow waxy”, the “Physical appearance at room temperature (25° C.)” value ([3]; HCO-60 2.5 wt %) was “Pale yellow waxy” and the “Physical appearance at room temperature (25° C.)” value ([3]; HCO-60 2.75 wt %) was “Pale yellow waxy”. For the same compound, the “Physical appearance at room temperature (25° C.)” value ([3]; HCO-60 3.0 wt %) was “Pale yellow waxy”, the “Physical appearance at room temperature (25° C.)” value ([3]; HCO-60 3.5 wt %) was “Pale yellow waxy” and the “Physical appearance at room temperature (25° C.)” value ([3]; HCO-60 4.0 wt %) was “Pale yellow waxy”.
